Measured values published in article PMC3426641 (Biochemistry, 2012).
Read-outs that look alike come from different tables or passages of the source.

Legend:
Eis_Mtb [1] = target: T1, Eis_Mtb (Mycobacterium tuberculosis, UniProt P9WFK7); assay: biochemical
Eis_Msm [2] = target: T2, Eis_Msm (Mycobacterium smegmatis, UniProt A0QY29); assay: biochemical
Eis_Msm [3] = target: T2, Eis_Msm; assay: Number of acetylations of AGs by Eis_Msm; format: biochemical; conditions: number of acetylations per AG; UV-Vis assay and LCMS, 25 °C, pH 8.0
Eis_Msm [4] = target: T2, Eis_Msm
Eis_Mtb [5] = target: T1, Eis_Mtb
Eis_Mtb [6] = target: T1, Eis_Mtb; assay: Inhibition of Eis_Mtb NEO acetylation; format: biochemical
Eis_Msm [7] = target: T2, Eis_Msm; assay: Inhibition of Eis_Msm NEO acetylation; format: biochemical; conditions: for mode of inhibition: Eis_Msm, against NEO
[8] = tested on: CN[C@@H]1[C@@H](O)[C@@H](O[C@@H]2[C@@H](O)[C@H](O[C@H]3OC(CN)=CC[C@H]3N)[C@@H](N)C[C@H]2N)OC[C@]1(C)O; assay: purified protein, by the assay type; conditions: other: Eis_Msm, pH 8.0
[9] = tested on: NC[C@H]1O[C@H](O[C@H]2[C@H](O)[C@@H](O[C@H]3O[C@H](CO)[C@@H](O)[C@H](N)[C@H]3O)[C@H](N)C[C@@H]2N)[C@H](N)C[C@@H]1O; assay: purified protein, by the assay type; conditions: pH 8.0
[10] = tested on: NCC[C@H](O)C(=O)N[C@@H]1C[C@H](N)[C@@H](O[C@H]2O[C@H](CN)[C@@H](O)[C@H](O)[C@H]2O)[C@H](O)[C@H]1O[C@H]1O[C@H](CO)[C@@H](O)[C@H](N)[C@H]1O; assay: purified protein, by the assay type; conditions: pH 8.0
[11] = tested on: NC[C@@H]1O[C@H](O[C@H]2[C@@H](O)[C@H](O[C@@H]3[C@@H](O)[C@H](N)C[C@H](N)[C@H]3O[C@H]3O[C@H](CO)[C@@H](O)[C@H](O)[C@H]3N)O[C@@H]2CO)[C@H](N)[C@@H](O)[C@@H]1O; assay: purified protein, by the assay type; conditions: other: Eis_Msm, fixed AcCoA 0.1 mM, varying AG, 25 °C, pH 8.0
[12] = tested on: CCN[C@@H]1C[C@H](N)[C@@H](O[C@H]2OC(CN)=CC[C@H]2N)[C@H](O)[C@H]1O[C@H]1OC[C@](C)(O)[C@H](NC)[C@H]1O; assay: purified protein, by the assay type; conditions: other: Eis_Msm, pH 8.0
[13] = tested on: NC[C@H]1O[C@H](O[C@H]2[C@H](O)[C@@H](O)[C@H](N)C[C@@H]2N)[C@H](N)[C@@H](O)[C@@H]1O; assay: purified protein, by the assay type; conditions: pH 8.0
[14] = tested on: NC[C@@H]1O[C@H](O[C@H]2[C@@H](O)[C@H](O[C@@H]3[C@@H](O)[C@H](N)C[C@H](N)[C@H]3O[C@H]3O[C@H](CN)[C@@H](O)[C@H](O)[C@H]3N)O[C@@H]2CO)[C@H](N)[C@@H](O)[C@@H]1O; assay: purified protein, by the assay type; conditions: other: Eis_Msm, pH 8.0
[15] = Eis_Msm, fixed AG 0.5 mM, varying AcCoA, 25 °C, pH 8.0
[16] = fixed AcCoA 0.1 mM, varying AG, 25 °C
[17] = random sequential mechanism, 25.0 °C
[18] = other: Eis_Msm, fixed AcCoA 0.1 mM, varying AG, 25 °C

T1 sequence (P9WFK7 whole entry): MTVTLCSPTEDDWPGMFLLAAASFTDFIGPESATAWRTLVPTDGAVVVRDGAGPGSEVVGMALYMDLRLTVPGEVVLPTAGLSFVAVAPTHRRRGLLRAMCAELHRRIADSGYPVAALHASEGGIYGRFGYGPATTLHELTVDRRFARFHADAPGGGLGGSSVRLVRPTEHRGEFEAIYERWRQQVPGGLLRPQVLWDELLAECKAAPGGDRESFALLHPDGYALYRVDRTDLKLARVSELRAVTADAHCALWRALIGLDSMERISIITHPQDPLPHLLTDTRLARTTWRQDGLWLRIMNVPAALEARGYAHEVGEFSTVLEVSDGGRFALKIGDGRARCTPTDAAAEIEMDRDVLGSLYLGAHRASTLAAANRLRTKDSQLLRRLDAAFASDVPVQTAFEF

`NCC[C@H](O)C(=O)N[C@@H]1C[C@H](N)[C@@H](O[C@H]2O[C@H](CN)[C@@H](O)[C@H](O)[C@H]2O)[C@H](O)[C@H]1O[C@H]1O[C@H](CO)[C@@H](O)[C@H](N)[C@H]1O` [AMK, amikacin] was tested, and the Kd (Eis_Mtb [1]) was 32 ± 14 µM, the Kd (Eis_Msm [2]) was greater than 1000 µM and the “level of acetylation by Eis from M. smegmatis” value (“level of acetylation by Eis” for short) (Eis_Msm [3]) was “tri-acetylated”. For the same compound, the “kcat,AcCoA” value (Eis_Msm [4]; [15]) was 0.142 ± 0.026 s⁻¹.
`CN[C@@H]1[C@@H](O[C@H]2O[C@H](CO)[C@@H](N)[C@H](O)[C@H]2O)OC2C[C@@H](N)[C@@H](O[C@H]3[C@H](O)[C@@H](O)[C@H](N)C[C@@H]3N)OC2[C@@H]1O` (stereo partly shown) [APR, apramycin] was tested, and the “level of acetylation by Eis” value (Eis_Msm [3]) was “di-acetylated”.
In the case of `CC(=O)SCCNC(=O)CCNC(=O)[C@H](O)C(C)(C)COP(=O)(O)OP(=O)(O)OC[C@H]1O[C@@H](n2cnc3c(N)ncnc32)[C@H](O)[C@@H]1OP(=O)(O)O` [AcCoA, acetyl-coenzyme A], the “Kd,AcCoA(E) fold smaller than Kd,AcCoA(E•AG)” value (Eis_Msm [4]; Eis_Msm, AG = KAN) is reported as “approximately 17 fold”.
`CN[C@@H]1C[C@H](N)[C@@H](O)[C@H](O[C@H]2O[C@H](CO)[C@H](O)[C@@H]3O[C@@]4(O[C@@H]23)O[C@H]([C@H](N)CO)[C@H](O)[C@H](O)[C@H]4O)[C@H]1O` [HYG, hygromycin] was tested, and the “level of acetylation by Eis” value (Eis_Msm [3]) was “mono-acetylated”.
With `NC[C@H]1O[C@H](O[C@H]2[C@H](O)[C@@H](O)[C@H](N)C[C@@H]2N)[C@H](N)[C@@H](O)[C@@H]1O` [NEA, neamine] the Kd (Eis_Mtb [1]) was 95 ± 50 µM, the Kd (Eis_Msm [2]) was 141 ± 60 µM and the “level of acetylation by Eis” value (Eis_Msm [3]) was “tri-acetylated”.
`NC[C@@H]1O[C@H](O[C@H]2[C@@H](O)[C@H](O[C@@H]3[C@@H](O)[C@H](N)C[C@H](N)[C@H]3O[C@H]3O[C@H](CN)[C@@H](O)[C@H](O)[C@H]3N)O[C@@H]2CO)[C@H](N)[C@@H](O)[C@@H]1O` [NEO, neomycin B] was tested, and the Kd (Eis_Mtb [1]) was 75 ± 41 µM, the Kd (Eis_Msm [2]) was greater than 1000 µM and the “level of acetylation by Eis” value (Eis_Msm [3]) was “tri-acetylated”. For the same compound, the “kcat,AcCoA” value (Eis_Msm [4]; 25 °C, pH 8.0) was 0.546 ± 0.065 s⁻¹.
In the case of `CCN[C@@H]1C[C@H](N)[C@@H](O[C@H]2OC(CN)=CC[C@H]2N)[C@H](O)[C@H]1O[C@H]1OC[C@](C)(O)[C@H](NC)[C@H]1O` [NET, netilmicin], the Kd (Eis_Mtb [1]) is reported as 31 ± 10 µM, the Kd (Eis_Msm [2]) is reported as 108 ± 35 µM and the “level of acetylation by Eis” value (Eis_Msm [3]) is reported as “di-acetylated”. For the same compound, the “kcat,AcCoA” value (Eis_Msm [4]; [15]) was 0.819 ± 0.121 s⁻¹.
For `NC[C@@H]1O[C@H](O[C@H]2[C@@H](O)[C@H](O[C@@H]3[C@@H](O)[C@H](N)C[C@H](N)[C@H]3O[C@H]3O[C@H](CO)[C@@H](O)[C@H](O)[C@H]3N)O[C@@H]2CO)[C@H](N)[C@@H](O)[C@@H]1O` [PAR, paromomycin], the “kcat,AG” value (Eis_Mtb [5]) was 0.15 ± 0.01 s⁻¹, the Km (Eis_Mtb [5]; read-out: Km,AG) was 96 ± 20 µM and the “level of acetylation by Eis” value (Eis_Msm [3]) was “tri-acetylated”.
With `NC[C@H]1O[C@H](O[C@H]2[C@H](O[C@@H]3O[C@H](CO)[C@@H](O)[C@H]3O)[C@@H](O)[C@H](N)C[C@@H]2N)[C@H](N)[C@@H](O)[C@@H]1O` [RIB, ribostamycin] the “level of acetylation by Eis” value (Eis_Msm [3]) was “tri-acetylated”.
`CN[C@@H]1[C@@H](O)[C@@H](O[C@@H]2[C@@H](O)[C@H](O[C@H]3OC(CN)=CC[C@H]3N)[C@@H](N)C[C@H]2N)OC[C@]1(C)O` [SIS, sisomicin] was tested, and the Kd (Eis_Mtb [1]) was 340 ± 140 µM, the Kd (Eis_Msm [2]) was 179 ± 54 µM and the “level of acetylation by Eis” value (Eis_Msm [3]) was “tri-acetylated”. The “kcat,AcCoA” value (Eis_Msm [4]; 25 °C, pH 8.0) was 0.620 ± 0.063 s⁻¹.
In the case of `CN[C@@H]1[C@H](O)[C@H](NC)[C@H]2O[C@@]3(O)C(=O)C[C@@H](C)O[C@H]3O[C@@H]2[C@H]1O` [SPT, spectinomycin], the “level of acetylation by Eis” value (Eis_Msm [3]) is reported as “not modified”.
With `[H]/N=C(/N)N[C@H]1[C@H](O)[C@@H](O)[C@H](O[C@@H]2O[C@@H](C)[C@](O)(C=O)[C@H]2O[C@@H]2O[C@@H](CO)[C@H](O)[C@@H](O)[C@@H]2NC)[C@@H](N/C(N)=N\[H])[C@@H]1O` [STR, streptomycin] the “level of acetylation by Eis” value (Eis_Msm [3]) was “not modified”.
In the case of `NC[C@H]1O[C@H](O[C@H]2[C@H](O)[C@@H](O[C@H]3O[C@H](CO)[C@@H](O)[C@H](N)[C@H]3O)[C@H](N)C[C@@H]2N)[C@H](N)C[C@@H]1O` [TOB, tobramycin], the “level of acetylation by Eis” value (Eis_Msm [3]) is reported as “tetra-acetylated”.
With `[H]/N=C(\N/C(=N/[H])NCCCCCCNC(=N)NC(=N)Nc1ccc(Cl)cc1)Nc1ccc(Cl)cc1` [chlorhexidine (1), chlorhexidine] the Ki (Eis_Mtb [6]) was 0.105 ± 0.024 µM, the IC50 (Eis_Msm [7]) was 1.85 µM and the Ki (Eis_Msm [7]) was 0.47 ± 0.15 µM. For the same compound, the mode of inhibition (Eis_Msm [7]; listed as 1) was “AG-competitive mode” and the mode of inhibition (Eis_Msm [7]; listed as Chlorhexidine (1)) was “competitive inhibitor of NEO”.
With “Eis_Msm (Mycolicibacterium smegmatis MC2 155)” the Km [8, 16] was 82 ± 8 µM, the kcat [8, 16] was 0.206 ± 0.006 s⁻¹ and the kcat [8, 17] was 0.85 ± 0.25 s⁻¹. For the same compound, the Km [9, 18] was 131 ± 22 µM, the kcat [9, 18] was 0.267 ± 0.016 s⁻¹ and the Km [10, 18] was 251 ± 55 µM. It also gave a kcat ([10]; other: Eis_Msm, random sequential mechanism, 25.0 °C) greater than 0.3 s⁻¹, a Km [11] of 153 ± 55 µM and a kcat [11] of 0.035 ± 0.006 s⁻¹. The Km [12, 16] was 197 ± 30 µM, the kcat [12, 16] was 0.835 ± 0.057 s⁻¹ and the kcat [12, 17] was 1 ± 0.4 s⁻¹. The Km [13, 18] was 359 ± 101 µM, the kcat [13, 18] was 0.176 ± 0.027 s⁻¹ and the Km [14, 16] was 314 ± 77 µM. For the same compound, the kcat [14, 17] was greater than 1 s⁻¹.
In the case of “Eis_Mtb (Mycobacterium tuberculosis H37Rv)”, the Km ([9]; 25.0 °C) is reported as 116 ± 17 µM, the kcat ([9]; 25.0 °C) is reported as 0.21 ± 0.01 s⁻¹ and the Km ([10]; 25.0 °C) is reported as 113 ± 35 µM. For the same compound, the kcat ([10]; 25.0 °C) was 0.03 ± 0.004 s⁻¹, the Km ([13]; 25.0 °C) was 137 ± 57 µM and the kcat ([13]; 25.0 °C) was 0.064 ± 0.01 s⁻¹.
In the case of kanamycin A, the “kcat (microscopic rate constant of acetylation)” value (Eis_Mtb [5]) is reported as 0.16 ± 0.07 s⁻¹, the “kcat,AcCoA” value (Eis_Mtb [5]) is reported as 0.094 ± 0.004 s⁻¹ and the “level of acetylation by Eis” value (Eis_Msm [3]) is reported as “di-acetylated”. The “kcat,AcCoA” value (Eis_Msm [4]; [15]) was 0.398 ± 0.060 s⁻¹ and the “kcat,AG” value (Eis_Msm [4]; Eis_Msm, fixed AcCoA 0.1 mM, varying AG, 25 °C, pH 8.0) was 0.108 ± 0.005 s⁻¹.
